Test results from patent publication US6362188B1, “Farnesyl protein transferase inhibitors” (Schering Corporation, priority 1998, dated 2002).

The molecules below were run on Human tumor cells (assay: Soft Agar Assay (anchorage-independent growth)). Settings: colony outgrowth in soft agar, stated as a range for the group.
Type: cell-based
Experimental: Anchorage-independent growth is a characteristic of tumorigenic cell lines. Human tumor cells can be suspended in growth medium containing 0.3% agarose and an indicated concentration of a farnesyl transferase inhibitor. The solution can be overlayed onto growth medium solidified with 0.6% agarose containing the same concentration of farnesyl transferase inhibitor as the top layer. After the top layer is solidified, plates can be incubated for 10-16 days at 37° C. under 5% CO2 to allow colony outgrowth. After incubation, the colonies can be stained by overlaying the agar with a solution of MTT (3-[4,5-dimethyl-thiazol-2-yl]-2,5-diphenyltetrazolium bromide, Thiazolyl blue) (1 mg/mL in PBS). Colonies can be counted and the IC50's can be determined.

SMILES	IC50
CC(C)(C)OC(=O)N1CCN(C2c3ccc(Cl)cc3CCc3cc(Br)cnc32)C[C@@H]1C(=O)N1CCCCC1CCn1ccnc1 (stereo partly drawn) [Example 74, 1,1-dimethylethyl-4-(3-bromo-8-chloro-6,11-dihydro-5H-benzo[5,6]cyclohepta[1,2-b]pyridin-11-yl)-2(R)-[[2-[2-(1H-imidazol-1-yl)ethyl]-1-piperidinyl]carbonyl]-1-piperazinecarboxylate]	0.5 to 30 nM
CC(C)(C)OC(=O)N1CCN([C@H]2c3ccc(Cl)cc3CCc3cc(Br)cnc32)C[C@@H]1C(=O)N1CCCCC1CCn1ccnc1 (stereo partly drawn) [Example 138, 1,1-dimethylethyl 4-(3-bromo-8-chloro-6,11-dihydro-5H-benzo[5,6]cyclohepta[1,2-b]pyridin-11(S)-yl)-2(R)-[[2-[2-(1H-imidazol-1-yl)ethyl]-1-piperidinyl]carbonyl]-1-piperazinecarboxylate]	0.5 to 30 nM
Cc1cn(CC2CN(C(=O)C3CN(C4c5ccc(Cl)cc5CCc5cc(Br)cnc54)CCN3C(=O)OC(C)(C)C)CCS2(=O)=O)cn1 (stereo not shown) [Example 150]	0.05 to 30 nM
Cc1nccn1CC1CN(C(=O)C2CN(C3c4ccc(Cl)cc4CCc4cc(Br)cnc43)CCN2C(=O)OC(C)(C)C)CCS1(=O)=O (stereo not shown) [Example 151]	0.05 to 30 nM
Cc1cncn1CC1CN(C(=O)C2CN(C3c4ccc(Cl)cc4CCc4cc(Br)cnc43)CCN2C(=O)OC(C)(C)C)CCS1(=O)=O (stereo not shown) [Example 152]	0.05 to 30 nM
Cc1cncn1C[C@H]1CN(C(=O)[C@H]2CN([C@H]3c4ccc(Cl)cc4CCc4cc(Br)cnc43)CCN2C(=O)OC(C)(C)C)CCS1(=O)=O [Example 154]	0.05 to 30 nM
CC(C)(C)OC(=O)N1CCN(C2c3ccc(Cl)cc3CCc3cc(Br)cnc32)CC1C(=O)N1CCS(=O)(=O)C(Cc2c[nH]cn2)C1 (stereo not shown) [Example 155]	0.05 to 30 nM
Cc1cn(CC2CCCN(C(=O)C3CN(C4c5ccc(Cl)cc5CCc5cc(Br)cnc54)CCN3C(=O)NC(C)(C)C)C2)cn1 (stereo not shown) [Example 177]	0.05 to 30 nM
Cc1cn(C[C@@H]2CCCN(C(=O)[C@H]3CN([C@@H]4c5ccc(Cl)cc5CCc5cc(Cl)cnc54)CCN3C(=O)OC(C)C)C2)cn1 [Example 231]	0.05 to 30 nM
Cc1cn(C[C@@H]2CCCN(C(=O)[C@H]3CN([C@H]4c5ccc(Cl)cc5CCc5cc(Cl)cnc54)CCN3C(=O)OC(C)C)C2)cn1 [Example 232]	0.05 to 30 nM
Cc1cn(CC2CCCN(C(=O)C3CN(C4c5ccc(Cl)cc5CCc5cc(Cl)cnc54)CCN3C(=O)OCC(C)(C)C)C2)cn1 (stereo not shown) [Example 233]	0.05 to 30 nM
Cc1cn(C[C@@H]2CCCN(C(=O)[C@H]3CN([C@H]4c5ccc(Cl)cc5CCc5cc(Cl)cnc54)CCN3C(=O)OCC(C)(C)C)C2)cn1 [Example 234]	0.05 to 30 nM
Cc1cn(C[C@@H]2CCCN(C(=O)[C@H]3CN([C@H]4c5ccc(Cl)cc5CCc5cc(Cl)cnc54)CCN3C(=O)NC(C)(C)C)C2)cn1 [Example 238]	0.05 to 30 nM
Cc1cn(C[C@@H]2CCCN(C(=O)[C@H]3CN([C@@H]4c5ccc(Cl)cc5CCc5cc(Cl)cnc54)CCN3C(=O)C(C)(C)C)C2)cn1 [Example 239]	0.05 to 30 nM
Cc1cn(C[C@@H]2CCCN(C(=O)[C@H]3CN([C@H]4c5ccc(Cl)cc5CCc5cc(Cl)cnc54)CCN3C(=O)C(C)(C)C)C2)cn1 [Example 240]	0.05 to 30 nM
Cc1cn(C[C@H]2CCCN(C(=O)[C@H]3CN([C@@H]4c5ccc(Cl)cc5CCc5cc(Cl)cnc54)CCN3C(=O)OCC(C)(C)C)C2)cn1 [Example 245]	0.05 to 30 nM
Cc1cn(C[C@@H]2CCCN(C(=O)[C@H]3CN([C@@H]4c5ccccc5CCc5cc(Cl)cnc54)CCN3C(=O)OCC(C)(C)C)C2)cn1 [Example 297]	0.05 to 30 nM
Cc1cn(CC2CCCN(C(=O)C3CN(C4c5ccccc5CCc5cc(Cl)cnc54)CCN3C(=O)OCC(C)(C)C)C2)cn1 (stereo not shown) [Example 298]	0.05 to 30 nM
Cc1cn(C[C@@H]2CCCN(C(=O)[C@H]3CN([C@@H]4c5ccccc5CCc5cc(Cl)cnc54)CCN3C(=O)OCC3CC3)C2)cn1 [Example 299]	0.05 to 30 nM
Cc1cn(CC2CCCN(C(=O)C3CN(C4c5ccccc5CCc5cc(Cl)cnc54)CCN3C(=O)OCC3CC3)C2)cn1 (stereo not shown) [Example 300]	0.05 to 30 nM
Cc1cn(C[C@@H]2CCCN(C(=O)[C@H]3CN([C@@H]4c5ccccc5CCc5cc(Cl)cnc54)CCN3C(=O)NC(C)(C)C)C2)cn1 [Example 301]	0.05 to 30 nM
Cc1cn(C[C@@H]2CCCN(C(=O)[C@H]3CN([C@H]4c5ccccc5CCc5cc(Cl)cnc54)CCN3C(=O)NC(C)(C)C)C2)cn1 [Example 302]	0.05 to 30 nM
Cc1cn(C[C@@H]2CCCN(C(=O)[C@H]3CN([C@@H]4c5ccccc5CCc5cc(Cl)cnc54)CCN3C(=O)C(C)(C)C)C2)cn1 [Example 303]	0.05 to 30 nM
Cc1cn(C[C@H]2CCCN(C(=O)[C@H]3CN([C@H]4c5ccccc5CCc5cc(Cl)cnc54)CCN3C(=O)C(C)(C)C)C2)cn1 [Example 316]	0.05 to 30 nM
Cc1cn(C[C@H]2CCCN(C(=O)[C@H]3CN([C@@H]4c5ccccc5CCc5cc(Cl)cnc54)CCN3C(=O)NC3CCCCC3)C2)cn1 [Example 317]	0.05 to 30 nM
Cc1cn(C[C@H]2CCCN(C(=O)[C@H]3CN([C@H]4c5ccccc5CCc5cc(Cl)cnc54)CCN3C(=O)NC3CCCCC3)C2)cn1 [Example 318]	0.05 to 30 nM
Cc1cn(CC2CCCN(C(=O)C3CN(C4c5ncccc5CCc5cccc(Cl)c54)CCN3C(=O)OC(C)(C)C)C2)cn1 (stereo not shown) [Example 394]	0.05 to 30 nM

Now from value to molecule:

IC50	SMILES
0.05 to 30 nM	Cc1nc(C)n(CC2CCCN(C(=O)C3CN(C4c5ccc(Cl)cc5CCc5cc(Br)cnc54)CCN3C(=O)OC(C)(C)C)C2)c1C (stereo not shown) [Example 158]
0.05 to 30 nM	Cc1c(CO)ncn1CC1CCCN(C(=O)C2CN(C3c4ccc(Cl)cc4CCc4cc(Br)cnc43)CCN2C(=O)OC(C)(C)C)C1 (stereo not shown) [Example 160]
0.05 to 30 nM	Cc1cn(C[C@@H]2CCCN(C(=O)[C@H]3CN([C@@H]4c5ccc(Cl)cc5CCc5cc(Br)cnc54)CCN3C(=O)OC(C)C)C2)cn1 [Example 169]
0.05 to 30 nM	Cc1cn(C[C@@H]2CCCN(C(=O)[C@H]3CN([C@H]4c5ccc(Cl)cc5CCc5cc(Br)cnc54)CCN3C(=O)OC(C)C)C2)cn1 [Example 170]
0.05 to 30 nM	Cc1cn(C[C@@H]2CCCN(C(=O)[C@H]3CN([C@@H]4c5ccc(Cl)cc5CCc5cc(Br)cnc54)CCN3C(=O)OC3CCCCC3)C2)cn1 [Example 171]
0.05 to 30 nM	Cc1cn(C[C@@H]2CCCN(C(=O)[C@H]3CN([C@H]4c5ccc(Cl)cc5CCc5cc(Br)cnc54)CCN3C(=O)OC3CCCCC3)C2)cn1 [Example 172]
0.05 to 30 nM	Cc1cn(C[C@@H]2CCCN(C(=O)[C@H]3CN([C@@H]4c5ccc(Cl)cc5CCc5cc(Br)cnc54)CCN3C(=O)OCC(C)(C)C)C2)cn1 [Example 173]
0.05 to 30 nM	Cc1cn(C[C@@H]2CCCN(C(=O)[C@H]3CN([C@H]4c5ccc(Cl)cc5CCc5cc(Br)cnc54)CCN3C(=O)OCC(C)(C)C)C2)cn1 [Example 174]
0.05 to 30 nM	Cc1cn(C[C@@H]2CCCN(C(=O)[C@H]3CN([C@@H]4c5ccc(Cl)cc5CCc5cc(Br)cnc54)CCN3C(=O)C(C)(C)C)C2)cn1 [Example 179]
0.05 to 30 nM	Cc1cn(CC2CCCN(C(=O)C3CN(C4c5ccc(Cl)cc5CCc5cc(Br)cnc54)CCN3C(=O)C(C)(C)C)C2)cn1 (stereo not shown) [Example 180]
0.05 to 30 nM	Cc1cn(C[C@H]2CCCN(C(=O)[C@H]3CN([C@@H]4c5ccc(Cl)cc5CCc5cc(Br)cnc54)CCN3C(=O)OC(C)C)C2)cn1 [Example 183]
0.05 to 30 nM	Cc1cn(C[C@H]2CCCN(C(=O)[C@H]3CN([C@H]4c5ccc(Cl)cc5CCc5cc(Br)cnc54)CCN3C(=O)OC(C)C)C2)cn1 [Example 184]
0.05 to 30 nM	Cc1cn(C[C@H]2CCCN(C(=O)[C@H]3CN([C@@H]4c5ccc(Cl)cc5CCc5cc(Br)cnc54)CCN3C(=O)OC3CCCCC3)C2)cn1 [Example 185]
0.05 to 30 nM	Cc1cn(C[C@H]2CCCN(C(=O)[C@H]3CN([C@H]4c5ccc(Cl)cc5CCc5cc(Br)cnc54)CCN3C(=O)OC3CCCCC3)C2)cn1 [Example 186]
0.05 to 30 nM	Cc1cn(C[C@H]2CCCN(C(=O)[C@H]3CN([C@@H]4c5ccc(Cl)cc5CCc5cc(Br)cnc54)CCN3C(=O)OCC(C)(C)C)C2)cn1 [Example 187]
0.05 to 30 nM	Cc1cn(CC2CCCN(C(=O)C3CN(C4c5ccc(Cl)cc5CCc5cc(Br)cnc54)CCN3C(=O)OCC(C)(C)C)C2)cn1 (stereo not shown) [Example 188]
0.05 to 30 nM	Cc1cn(C[C@H]2CCCN(C(=O)[C@H]3CN([C@@H]4c5ccc(Cl)cc5CCc5cc(Br)cnc54)CCN3C(=O)NC(C)(C)C)C2)cn1 [Example 191]
0.05 to 30 nM	Cc1cn(C[C@H]2CCCN(C(=O)[C@H]3CN([C@H]4c5ccc(Cl)cc5CCc5cc(Br)cnc54)CCN3C(=O)NC(C)(C)C)C2)cn1 [Example 192]
0.05 to 30 nM	Cc1cn(C[C@@H]2CCCN(C(=O)[C@H]3CN([C@H]4c5ccc(Cl)cc5CCc5cc(Br)cnc54)CCN3C(=O)C3(C)CC3)C2)cn1 [Example 201]
0.05 to 30 nM	Cc1cn(C[C@@H]2CN(C(=O)[C@H]3CN([C@@H]4c5ccc(Cl)cc5CCc5cc(Br)cnc54)CCN3C(=O)OC3CCCCC3)CCS2(=O)=O)cn1 [Example 209]
0.05 to 30 nM	Cc1cn(C[C@@H]2CN(C(=O)[C@H]3CN([C@H]4c5ccc(Cl)cc5CCc5cc(Br)cnc54)CCN3C(=O)OC3CCCCC3)CCS2(=O)=O)cn1 [Example 210]
0.05 to 30 nM	Cc1cn(C[C@H]2CN(C(=O)[C@H]3CN([C@H]4c5ccc(Cl)cc5CCc5cc(Br)cnc54)CCN3C(=O)OC3CCCCC3)CCS2(=O)=O)cn1 [Example 211]
0.05 to 30 nM	Cc1nc(C)n(C[C@H]2CCCN(C(=O)[C@H]3CN([C@H]4c5ccc(Cl)cc5CCc5cc(Br)cnc54)CCN3C(=O)OC3CCCCC3)C2)c1C [Example 214]
0.05 to 30 nM	Cc1cn(CC[C@H]2CCCN2C(=O)[C@H]2CN(C3c4ccc(Cl)cc4CCc4cc(Br)cnc43)CCN2C(=O)OC2CCCCC2)cn1 (stereo partly shown) [Example 215]
0.05 to 30 nM	Cc1cn(CC[C@@H]2CCCN2C(=O)[C@H]2CN(C3c4ccc(Cl)cc4CCc4cc(Br)cnc43)CCN2C(=O)OC2CCCCC2)cn1 (stereo partly shown) [Example 216]
